Measurements: patent publication US20260200939A1, “MOLECULAR GLUE DEGRADER COMPOUNDS AND USES THEREOF” (Novartis AG, priority 2022, published 2026)

Molecular target: T1, CDK4 (Homo sapiens, UniProt P11802)
T1 construct: endogenous in cells; host or cells: C33A
Test: CDK4 Degradation Assay, Western blotting
Format: cell-based
Procedure: C33A cells were purchased from American Type Culture Collection (ATCC) and were cultured in Dulbecco's Modified Eagle Medium (DMEM) containing 10% (v/v) fetal bovine serum (FBS) and maintained at 37° C. with 5% CO2. 22RV1 cells were purchased from the ATCC and were cultured in RPMI-1640 Medium containing 10% (v/v) FBS and maintained at 37° C. with 5% CO2. HEK293T cells were obtained from the UC Berkeley Cell Culture Facility and were cultured in DMEM containing 10% (v/v) FBS and maintained at 37° C. with 5% CO2. K562 cells were obtained from the UC Berkeley Cell Culture Facility and were cultured in Iscove's Modified Dulbecco's Medium (IMDM) containing 10% (v/v) FBS and maintained at 37° C. with 5% CO2. MV-4-11 cells were obtained from the ATCC and were cultured in IMDM containing 10% (v/v) FBS and maintained at 37° C. with 5% CO2. A549 cells were obtained from the ATCC and were cultured in F-12K Medium containing 10% (v/v) FBS and maintained at 37° C. with 5% CO2. Mino cells were obtained from the ATCC and were cultured in RPMI-1640 Medium containing 10% (v/v) FBS and maintained at 37° C. with 5% CO2. LNCaP cells were obtained from the ATCC and were cultured in RPMI-1640 Medium containing 10% (v/v) FBS and maintained at 37° C. with 5% CO2. Unless otherwise specified, all cell culture materials were purchased from Gibco. It is not known whether HEK293T cells are from male or female origin.
Cells were washed twice with cold PBS, scraped, and pelleted by centrifugation (700 g, 5 min, 4° C.). Pellets were resuspended in PBS, sonicated, clarified by centrifugation (12,000 g, 10 min, 4° C.), and lysate was transferred to new low-adhesion microcentrifuge tubes. Proteome concentrations were determined using BCA assay and lysate was diluted to appropriate working concentrations.
Proteins were resolved by SDS/PAGE and transferred to nitrocellulose membranes using the Trans-Blot Turbo transfer system (Bio-Rad). Membranes were blocked with 5% BSA in Tris-buffered saline containing Tween 20 (TBS-T) solution for 30 min at RT, washed in TBS-T, and probed with primary antibody diluted in recommended diluent per manufacturer overnight at 4° C. After 3 washes with TBS-T, the membranes were incubated in the dark with IR680- or IR800-conjugated secondary antibodies at 1:10,000 dilution in 5% BSA in TBS-T at RT for 1 h. After 3 additional washes with TBST, blots were visualized using an Odyssey Li-Cor fluorescent scanner. The membranes were stripped using ReBlot Plus Strong Antibody Stripping Solution (EMD Millipore) when additional primary antibody incubations were performed. Antibodies used in this study were CDK4 (Abcam ab108357), Vinculin (Abcam ab129002), GAPDH (Cell Signaling Technology 14C10), RNF126 (Santa Cruz Biotechnology sc-376005), BRD4 (Abcam ab128874), Beta Actin (Cell Signaling Technology 13E5), PDE5 (Abcam ab259945), AR-V7 (Abcam ab273500), c-Abl (Santa Cruz Biotechnology sc-23), SMARCA2 (Abcam ab240648), LRRK2 (Abcam ab133474), BTK (Cell Signaling Technology D3H5), Androgen Receptor (Abcam ab133273).

Compound | DC50
COc1ccc(C(=O)/C(C)=C/C(=O)N2CCN(c3ccc(Nc4ncc5cc(C(=O)N(C)C)n(C6CCCC6)c5n4)nc3)CC2)cc1 [Compound 146, (E)-7-cyclopentyl-2-((5-(4-(4-(4-methoxyphenyl)-3-methyl-4-oxobut-2-enoyl)piperazin-1-yl)pyridin-2-yl)amino)-N,N-dimethyl-7H-pyrrolo[2,3-d]pyrimidine-6-carboxamide] | > 10 µM
COc1ccccc1C(=O)/C=C/C(=O)N1CCN(c2ccc(Nc3ncc4cc(C(=O)N(C)C)n(C5CCCC5)c4n3)nc2)CC1 [Compound 148, (E)-7-cyclopentyl-2-((5-(4-(4-(2-methoxyphenyl)-4-oxobut-2-enoyl)piperazin-1-yl)pyridin-2-yl)amino)-N,N-dimethyl-7H-pyrrolo[2,3-d]pyrimidine-6-carboxamide] | > 10 µM
CN(C)C(=O)c1cc2cnc(Nc3ccc(N4CCN(C(=O)/C=C/C(=O)c5ccc(F)cc5)CC4)cn3)nc2n1C1CCCC1 [Compound 151, (E)-7-cyclopentyl-2-((5-(4-(4-(4-fluorophenyl)-4-oxobut-2-enoyl)piperazin-1-yl)pyridin-2-yl)amino)-N,N-dimethyl-7H-pyrrolo[2,3-d]pyrimidine-6-carboxamide] | > 10 µM
CN(C)C(=O)c1cc2cnc(Nc3ccc(N4CCN(C(=O)/C=C/C(=O)c5ccccc5Cl)CC4)cn3)nc2n1C1CCCC1 [Compound 158, (E)-2-((5-(4-(4-(2-chlorophenyl)-4-oxobut-2-enoyl)piperazin-1-yl)pyridin-2-yl)amino)-7-cyclopentyl-N,N-dimethyl-7H-pyrrolo[2,3-d]pyrimidine-6-carboxamide] | > 10 µM
CN(C)C(=O)c1cc2cnc(Nc3ccc(N4CCN(C(=O)/C=C/C(=O)c5ccccc5Br)CC4)cn3)nc2n1C1CCCC1 [Compound 159, (E)-2-((5-(4-(4-(2-bromophenyl)-4-oxobut-2-enoyl)piperazin-1-yl)pyridin-2-yl)amino)-7-cyclopentyl-N,N-dimethyl-7H-pyrrolo[2,3-d]pyrimidine-6-carboxamide] | > 10 µM
COc1ccc(C(=O)/C=C(\C)C(=O)N2CCN(c3ccc(Nc4ncc5cc(C(=O)N(C)C)n(C6CCCC6)c5n4)nc3)CC2)cc1 [Compound 160, (E)-7-cyclopentyl-2-((5-(4-(4-(4-methoxyphenyl)-2-methyl-4-oxobut-2-enoyl)piperazin-1-yl)pyridin-2-yl)amino)-N,N-dimethyl-7H-pyrrolo[2,3-d]pyrimidine-6-carboxamide] | > 10 µM
CN(C)C(=O)c1cc2cnc(Nc3ccc(N4CCN(C(=O)/C=C/C(=O)c5cccc(C(F)(F)F)c5)CC4)cn3)nc2n1C1CCCC1 [Compound 165, (E)-7-cyclopentyl-N,N-dimethyl-2-((5-(4-(4-oxo-4-(3-(trifluoromethyl)phenyl)but-2-enoyl)piperazin-1-yl)pyridin-2-yl)amino)-7H-pyrrolo[2,3-d]pyrimidine-6-carboxamide] | > 10 µM
CN(C)C(=O)c1cc2cnc(Nc3ccc(N4CCN(C(=O)/C=C/C(=O)c5ccc6c(c5)OCCO6)CC4)cn3)nc2n1C1CCCC1 [Compound 255, (E)-7-cyclopentyl-2-((5-(4-(4-(2,3-dihydrobenzo[b][1,4]dioxin-6-yl)-4-oxobut-2-enoyl)piperazin-1-yl)pyridin-2-yl)amino)-N,N-dimethyl-7H-pyrrolo[2,3-d]pyrimidine-6-carboxamide] | > 10 µM
COc1ccc(C(=O)/C=C(\C#N)C(=O)N2CCN(c3ccc(Nc4ncc5cc(C(=O)N(C)C)n(C6CCCC6)c5n4)nc3)CC2)cc1 [Compound 256, (E)-2-((5-(4-(2-cyano-4-(4-methoxyphenyl)-4-oxobut-2-enoyl)piperazin-1-yl)pyridin-2-yl)amino)-7-cyclopentyl-N,N-dimethyl-7H-pyrrolo[2,3-d]pyrimidine-6-carboxamide] | > 10 µM
CN(C)C(=O)c1cc2cnc(Nc3ccc(N4CCN(C(=O)/C=C/C(=O)c5ccc6c(c5)NC(=O)CO6)CC4)cn3)nc2n1C1CCCC1 [Compound 257, (E)-7-cyclopentyl-N,N-dimethyl-2-((5-(4-(4-oxo-4-(3-oxo-3,4-dihydro-2H-benzo[b][1,4]oxazin-6-yl)but-2-enoyl)piperazin-1-yl)pyridin-2-yl)amino)-7H-pyrrolo[2,3-d]pyrimidine-6-carboxamide] | > 10 µM
CN(C)C(=O)c1cc2cnc(Nc3ccc(N4CCN(C(=O)/C=C/C(=O)c5ccccc5)CC4)cn3)nc2n1C1CCCC1 [Compound 258, (E)-7-cyclopentyl-N,N-dimethyl-2-((5-(4-(4-oxo-4-phenylbut-2-enoyl)piperazin-1-yl)pyridin-2-yl)amino)-7H-pyrrolo[2,3-d]pyrimidine-6-carboxamide] | > 10 µM
CN(C)C(=O)c1cc2cnc(Nc3ccc(N4CCN(C(=O)/C=C/C(=O)c5cccc(Br)c5)CC4)cn3)nc2n1C1CCCC1 [Compound 259, (E)-2-((5-(4-(4-(3-bromophenyl)-4-oxobut-2-enoyl)piperazin-1-yl)pyridin-2-yl)amino)-7-cyclopentyl-N,N-dimethyl-7H-pyrrolo[2,3-d]pyrimidine-6-carboxamide] | > 10 µM
CN(C)C(=O)c1cc2cnc(Nc3ccc(N4CCN(C(=O)/C=C/C(=O)c5ccc6c(c5)OCC6)CC4)cn3)nc2n1C1CCCC1 [Compound 260, (E)-7-cyclopentyl-2-((5-(4-(4-(2,3-dihydrobenzofuran-6-yl)-4-oxobut-2-enoyl)piperazin-1-yl)pyridin-2-yl)amino)-N,N-dimethyl-7H-pyrrolo[2,3-d]pyrimidine-6-carboxamide] | > 10 µM
CN(C)C(=O)c1cc2cnc(Nc3ccc(N4CCN(C(=O)/C=C/C(=O)c5ccc6c(c5)CCO6)CC4)cn3)nc2n1C1CCCC1 [Compound 261, (E)-7-cyclopentyl-2-((5-(4-(4-(2,3-dihydrobenzofuran-5-yl)-4-oxobut-2-enoyl)piperazin-1-yl)pyridin-2-yl)amino)-N,N-dimethyl-7H-pyrrolo[2,3-d]pyrimidine-6-carboxamide] | > 10 µM
Cc1ccc(C(=O)/C=C/C(=O)N2CCN(c3ccc(Nc4ncc5cc(C(=O)N(C)C)n(C6CCCC6)c5n4)nc3)CC2)cc1 [Compound 262, (E)-7-cyclopentyl-N,N-dimethyl-2-((5-(4-(4-oxo-4-(p-tolyl)but-2-enoyl)piperazin-1-yl)pyridin-2-yl)amino)-7H-pyrrolo[2,3-d]pyrimidine-6-carboxamide] | 1 to 10 µM
Cc1ccccc1C(=O)/C=C/C(=O)N1CCN(c2ccc(Nc3ncc4cc(C(=O)N(C)C)n(C5CCCC5)c4n3)nc2)CC1 [Compound 263, (E)-7-cyclopentyl-N,N-dimethyl-2-((5-(4-(4-oxo-4-(o-tolyl)but-2-enoyl)piperazin-1-yl)pyridin-2-yl)amino)-7H-pyrrolo[2,3-d]pyrimidine-6-carboxamide] | > 10 µM
COc1ccc(C(=O)/C=C/C(=O)N2CCN(c3ccc(Nc4ncc5cc(C(=O)N(C)C)n(C6CCCC6)c5n4)nc3)CC2)c(F)c1 [Compound 264, (E)-7-cyclopentyl-2-((5-(4-(4-(2-fluoro-4-methoxyphenyl)-4-oxobut-2-enoyl)piperazin-1-yl)pyridin-2-yl)amino)-N,N-dimethyl-7H-pyrrolo[2,3-d]pyrimidine-6-carboxamide] | > 10 µM
COc1cc(F)ccc1C(=O)/C=C/C(=O)N1CCN(c2ccc(Nc3ncc4cc(C(=O)N(C)C)n(C5CCCC5)c4n3)nc2)CC1 [Compound 265, (E)-7-cyclopentyl-2-((5-(4-(4-(4-fluoro-2-methoxyphenyl)-4-oxobut-2-enoyl)piperazin-1-yl)pyridin-2-yl)amino)-N,N-dimethyl-7H-pyrrolo[2,3-d]pyrimidine-6-carboxamide] | > 10 µM
